Data reported in ChEMBL document CHEMBL4619784, “Exploiting Existing Molecular Scaffolds for Long-Term COVID Treatment” (ACS Med Chem Lett, 2020).

Test system: SARS-CoV
Experiment: Antiviral activity against SARS coronavirus Urbani infected in monkey Vero E6 cells assessed as reduction in virus-induced cytopathogenicity incubated for 48 hrs by CellTiter-Glo luminescent cell viability assay
Assay type: functional, organism-based
Details: Severe acute respiratory syndrome-related coronavirus, Vero C1008, 48 h

Cc1ccc(N)cc1C(=O)N[C@H](C)c1cccc2ccccc12
EC50: 10 µM
